One may read the IC50 as the concentration at which inhibition is half-maximal. For orientation: melting point means the temperature of the solid-liquid transition.

One data set has as its target T1, endothelial lipase (EL) (Homo sapiens, UniProt Q9Y5X9).
T1 construct: made in house; host or cells: AV12 cells (conditioned media, non-purified)
T1 sequence (Q9Y5X9 21-500): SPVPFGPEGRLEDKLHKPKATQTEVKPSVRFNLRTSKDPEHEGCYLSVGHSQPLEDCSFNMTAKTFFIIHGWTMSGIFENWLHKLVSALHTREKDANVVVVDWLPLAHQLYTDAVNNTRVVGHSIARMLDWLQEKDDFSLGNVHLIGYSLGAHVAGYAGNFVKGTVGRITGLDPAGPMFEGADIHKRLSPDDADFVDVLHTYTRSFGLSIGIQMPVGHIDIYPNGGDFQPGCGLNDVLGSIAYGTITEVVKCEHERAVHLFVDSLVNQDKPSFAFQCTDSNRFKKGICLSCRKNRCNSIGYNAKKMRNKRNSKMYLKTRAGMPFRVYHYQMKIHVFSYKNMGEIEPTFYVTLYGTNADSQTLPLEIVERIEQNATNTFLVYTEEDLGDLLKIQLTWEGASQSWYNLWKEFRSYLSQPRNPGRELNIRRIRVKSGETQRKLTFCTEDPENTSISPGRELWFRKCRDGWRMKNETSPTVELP
Nature of the data set: Endothelial Lipase Inhibition (Thio PEG substrate, conditioned media). It counts as biochemical. Particulars: EL expressed from AV12 cells, 37° C., average of 3 experiments. Here is the method:
Methods for Characterization of Endothelial Lipase Activity
Hepatic lipase (HL) and endothelial lipase (EL) were expressed from AV12 cells. Aliquots from one day's collection of media were stored at −70° C. Activity was measured for both enzymes in conditioned media, (non-purified) where they were tested on the same plate with Thio PEG substrate (0.06 mol fraction, 7.24 mM total lipid), at 37° C. for 30 minutes. […] The OD for EL at 1× was 6.029. Therefore, when HL was used in studies where it was compared to EL, the HL was at 0.25× and EL was used at 1×. All experiments were done in triplicate with enzyme from conditioned media.
Assay conditions of assay were as follows. Both substrates for EL were run at 0.03 mol fraction, 10 mM total lipid. They were dissolved in 100 mM Hepes with 9.95 mM TX100. Both substrates for HL were run at 0.06 mol fraction and 7.25 mM total lipid. They were dissolved in 100 mM Hepes with 6.83 mM Triton X100. The EL enzyme was used at 1× and the HL enzyme was used at 0.25×. The order of addition was as follows: 10 μL of 10% DMSO, 80 μL of substrate and 10 μL of enzyme. The DMSO and substrate were incubated for 10 minutes at 37° C. before the addition of the enzyme. DTNB was added to the substrate prior to addition to the well at 0.096 mg/mL final plate. concentration. The experiments were performed 3 times. Data represents an average of these.
Several compounds were tested with HL and EL to determine their ability to inhibit these enzymes. Conditions of the assay were as mentioned in the previous paragraph except for the order of addition. In these experiments, the order of addition was 10 μL of drug/control, 10 μL of enzyme followed by a 10 minute incubation at 37° C. This was followed by the addition of the 80 μL of Thio PEG substrate containing DTNB. Each experiment was performed 3 times. Data represents an average.
With `CCc1ccccc1CNC(=O)n1[nH]c2ccccc2c1=O`, 11.4 ± 5.17 nM corresponded to half-maximal inhibition (IC50).

On to `O=C(NCc1ccccc1)n1[nH]c2ccccc2c1=O`, for which the midpoint of inhibition, the IC50, lay at 73.8 ± 26.2 nM.

With `O=C(NCc1ccc2c(c1)OCO2)n1[nH]c2ccccc2c1=O`, the IC50 is 45.1 ± 27.5 nM.

The compound `O=C(NCc1csc2ccccc12)n1[nH]c2ccccc2c1=O` yielded an IC50 of 13.2 ± 2.83 nM.

The next data set concerns the target T2, Recombinant Hepatic Lipase (Homo sapiens, UniProt P11150).
T2 sequence (P11150 23-499): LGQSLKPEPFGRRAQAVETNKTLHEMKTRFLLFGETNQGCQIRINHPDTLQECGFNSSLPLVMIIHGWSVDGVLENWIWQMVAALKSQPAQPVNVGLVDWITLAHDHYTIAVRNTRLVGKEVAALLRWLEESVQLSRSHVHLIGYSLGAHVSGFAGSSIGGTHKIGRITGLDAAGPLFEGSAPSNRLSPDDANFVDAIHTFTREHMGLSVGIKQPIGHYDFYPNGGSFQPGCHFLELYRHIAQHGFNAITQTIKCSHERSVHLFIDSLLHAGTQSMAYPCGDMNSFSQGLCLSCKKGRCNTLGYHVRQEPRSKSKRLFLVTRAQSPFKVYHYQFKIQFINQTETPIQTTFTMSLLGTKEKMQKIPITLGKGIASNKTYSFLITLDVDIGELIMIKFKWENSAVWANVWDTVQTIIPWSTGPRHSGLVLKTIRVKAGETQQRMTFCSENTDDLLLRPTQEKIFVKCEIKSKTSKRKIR
Nature of the data set: Hepatic Lipase Phospholipase Assay. It counts as biochemical. Particulars: ThioPEG substrate, DTNB, 37° C., 10 min preincubation; read-out: Hepatic Lipase Inhibition IC50. Here is the method: Hepatic Lipase Phospholipase Assay
Efficacy was determined by testing various compounds of the invention in a hepatic lipase assay discussed below, and disclosed in U.S. patent application Ser. No. 09/609,871 filed Jul. 3, 2000 incorporated herein by reference in its entirety for U.S. Patent office purposes.
• Substrate Buffer A: 100 mM Hepes, pH 8.3 at 37° C. • Substrate Buffer B: 100 mM Hepes, pH 8.3 at 37° C. with 6.83 mM Triton X100 • ThioPEG: Molecular wt. of 540 • Recombinant Hepatic Lipase • Thiophospholipid: about 0.42 mM thiophospholipid in chloroform • DTNB Solution: about […] DTNB in DMSO (dimethyl sulfoxide) Hepes Buffer A
For Hepes Buffer A, there is 2.4 g Hepes/100 mL water. Therefore 36 grams of Hepes is dissolved in 1500 mL of water. The mix solution's pH is adjusted to pH 8.3 at 37° C. and brought up to 1500 mL with water. 500 mL of Buffer A is retained for the Protein Buffer.
To the remaining 1000 mL of Hepes Buffer A, 4.49 g of Triton X-100 is added and then the combination mixed on a stir plate. It is optimal that stock Buffer A not be too cold or Triton X-100 will take a long time to go into solution
For 0.42 mM substrate stock, use 0.227 mg of thioPEG/mL of Substrate Buffer B. Approximately 20 mg of sn-1 thiol substituted. Phosphatidyl Ethylene Glycol (see Examples for preparation method) is weighed into a vial, such as a scintillation vial. Enough chloroform should be added to make a 2.043 mg/mL solution. Sonicate the solution briefly until well dissolved. Next, pipette 1 mL of chloroform/substrate solution into each scintillation vial. This should give enough substrate for one full 96 well plate. Each vial is dried with nitrogen until solvent removed, swirling each vial simultaneously such that a thin film of substrate will be easily reconstituted in each buffer. Each vial is then frozen.
Daily stock preparation is performed for 9 mL of substrate (one microtiter plate). On the day of the assay, the substrate vial is removed from the freezer and combined with 9 mL of pre-warmed (37° C.) substrate buffer (the final concentration is 0.227 mg/mL). Place the buffer in a 37° C. water bath. Sonicate for 5 minutes or vortex until solution is clear before use.
The enzyme is stored at −80° C. in 100 or 50 μL portions. A 0.406 mg/mL recombinant hepatic lipase stock requires a 50-fold dilution. Therefore, to a 50 μL or 100 μL enzyme aliquot, 2450 μL or 4900 μL, respectively, of substrate Buffer A (protein buffer) should be added. The enzyme should then be stored on ice until ready to use. The protein concentration of enzyme is about 0.406 mg/mL.
To make a 20 mg/mL stock solution, 2-3 mg of DTNB is weighed and then mixed with an appropriate amount of 100% DMSO (dimethyl sulfoxide) to make the desired concentration. This mixture is sonicated for five minutes.
The above solution should be diluted 10 fold with substrate Buffer B (concentration now 2 mg/mL). Then to the thioPEG substrate solution, add 60 μl of dilute DTNB per mL of thioPEG substrate solution. Thus for 9 mL of substrate, 540 microliters of dilute DTNB (final concentration in substrate solution=0.11 mg/mL).
The test compound is dissolved in pure DMSO at […]. As shown below in Table 2, assay concentrations are 10, 1, 0.1, 0.33, 0.011, 0.0037, 0.0012 and 0.00041 μM.
Using a spectrometer, DTNB is used as a thiol coloring reagent with an incubator temperature of 37° C. Substrate Buffer B is placed in a 37° C. water bath to pre-warm. […]
As for `CCCCNC(=O)n1[nH]c2ccccc2c1=O`, the 50% inhibitory concentration (IC50) amounted to 368 ± 15 nM.

As for `CCCCNC(=O)n1c(=O)c2ccccc2n1C`, the IC50 stood at 19 ± 0.4 nM.

On to `CCCCCNC(=O)n1c(=O)c2ccccc2n1CCC`, for which the IC50 stood at 59.2 ± 1.1 nM.

Regarding `CCCCCNC(=O)n1c(=O)c2ccccc2n1CCc1ccccc1`, the IC50 is 97.1 ± 1 nM.

On to `CCCCCNC(=O)n1[nH]c2ccccc2c1=O` [drawing 15], for which the 50% inhibitory concentration (IC50) was found to be 67.2 ± 3.2 nM.

Tested on in the next data set: not given
Assay: not given
Conditions: not given
The compound `CCc1cccc(C)c1CNC(=O)n1c(=O)c2cccc(C(=O)O)c2n1CC(=O)OC` [Example 83, 2-(2-Ethyl-6-methyl-benzylcarbamoyl)-1-methoxycarbonylmethyl-3-oxo-2,3-dihydro-1H-indazole-7-carboxylic acid] yielded a melting point of 220 to 222 °C.

`Cc1cccc(C(C)(C)C)c1CNC(=O)n1c(=O)c2cccc(C(=O)O)c2n1C` [Example 97, 2-(2-tert-Butyl-6-methyl-benzylcarbamoyl)-1-methyl-3-oxo-2,3-dihydro-1H-indazole-7-carboxylic acid] came in with a melting point above 250 °C.

Regarding `CCc1cccc(CC)c1CNC(=O)n1c(=O)c2cccc(C(=O)O)c2n1C` [Example 98, 2-(2,6-Diethyl-benzylcarbamoyl)-1-methyl-3-oxo-2,3-dihydro-1H-indazole-7-carboxylic acid], the melting point is above 250 °C.

Compound `CCCCCCNC(=O)n1[nH]c2cccc(C(=O)OC)c2c1=O` [Example 99, 2-Hexylcarbamoyl-3-oxo-2,3-dihydro-1H-indazole4-carboxylic acid methyl ester] yielded a melting point of 63 to 65 °C.

The compound `C=CCOC(=O)c1cccc2[nH]n(C(=O)NCCCCCC)c(=O)c12` [Example 100, 2-Hexylcarbamoyl-3-oxo-2,3-dihydro-1H-indazole-4-carboxylic acid allyl ester] came in with a melting point of 67 to 69 °C.

These data come from patent US20060211755A1, “3-oxo-1, 3-dihydro-indazole-2-carboxylic acid amide derivatives as phospholipase inhibitors” (Eli Lilly and Company Patent Division, priority 2003, published 2006).
